*1 amine or outer side, *2 acyl side, *3 side chain or, on linkers, in order; H or OH if unused. Where a SMILES comes first, the peptide text is derived from it. Bridges are numbered along the chain shown (N, C = ends). Roman numbers before positions name the chains, in order. [ ]: non-standard residue; d: D form. The star is where a group is joined. ξ: configuration not given here. TATA = O=C(CC[*:1])N1CN(C(=O)CC[*:2])CN(C(=O)CC[*:3])C1; Dolaproine = CO[C@@H]([C@@H]1CCCN1)[C@@H](C)C(=O)O; X1 = CC[C@H](C)C(C(CC(=O)[*:2])OC)N(C)[*:1]; 1Nal = N[C@@H](Cc1cccc2ccccc12)C(=O)O; X3 = O=C(CCCC(=O)[*:2])NCCC(=O)[*:1]; PABC = O=C(OCc1ccc(N[*:1])cc1)[*:2]; Hyp = O=C(O)[C@@H]1C[C@@H](O)CN1; hArg = N=C(N)NCCCC[C@H](N)C(=O)O; Cit = NC(=O)NCCC[C@H](N)C(=O)O; X2 = CC(N*)[C@@H](O)c1ccccc1; ξNMeV = CNC(C(=O)O)C(C)C; ξV = CC(C)C(N)C(=O)O; Sar = CNCC(=O)O
Experiments:
MDA-MB-468 xenograft = experiment: Example 9.9: in vivo efficacy of BCY8245 alone or with BCY8234 in MDA-MB-468 xenograft (large tumors) in Balb/c nude mice; set-up: species or system Mus Musculus
[1] = BCY8245 (BT8009) at 3 mg/kg
Description: At various timepoints, animals were euthanized and plasma and tumour taken and snap frozen. Samples were analysed for MMAE.

CTG-0896 = conditions: qw iv
From the text: (§1) To evaluate the antitumor activity of Bicycle Agent in Low Passage Champions TumorGraft Models of Human Breast, Esophageal, and Bladder Cancer in Immunocompromised mice.
(§2) • Species: Mouse • Strain: Athymic Nude-Foxn1nu (Immune-compromised) • Source: Envigo: Indianapolis, Indiana • Gender: Female • Target age at initiation of dosing: At least 6-8 weeks of age • Target weight at initiation of dosing: At least 18 grams • Acclimation period: 3 days Experimental Design
(§3) Pre-study Animals: When sufficient stock animals reach 1.0-1.5 cm^3, tumors will be harvested for re-implantation into pre-study animals. Pre-study animals will be implanted unilaterally on the left flank with tumor fragments harvested from stock animals. Each animal is implanted from a specific passage lot and documented.
(§4) Study Animals: Pre-study tumor volumes are recorded for each experiment beginning seven to ten days after implantation. When tumors reach an average tumor volume of 150-300 mm^3, animals will be matched by tumor volume into treatment or control groups to be used for dosing and dosing initiated on Day 0.

CTG-1106 = conditions: qw iv
From the text: as §1, §2, §3, §4

CTG-1171 = conditions: qw iv
From the text: as §1, §2, §3, §4

CTG-1771 = conditions: qw iv
From the text: as §1, §2, §3, §4

human Nectin-4 = molecular target: T1, human Nectin-4 (Homo sapiens, UniProt Q96NY8); experiment: Nectin-4 Biacore SPR binding assay
T1 sequence (Q96NY8 32-349): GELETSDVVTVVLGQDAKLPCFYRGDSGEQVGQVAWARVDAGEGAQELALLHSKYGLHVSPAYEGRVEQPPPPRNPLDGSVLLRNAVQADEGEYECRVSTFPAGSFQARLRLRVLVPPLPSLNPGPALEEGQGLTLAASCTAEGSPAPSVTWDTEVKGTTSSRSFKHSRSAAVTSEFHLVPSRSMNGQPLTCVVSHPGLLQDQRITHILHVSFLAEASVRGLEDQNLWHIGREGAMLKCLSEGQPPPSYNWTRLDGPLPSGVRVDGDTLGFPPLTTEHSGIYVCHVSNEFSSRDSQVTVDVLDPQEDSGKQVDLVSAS
Description: Biacore experiments were performed to determine ka (M^−1 s^−1), kd (s^−1), KD (nM) values of monomeric peptides binding to human Necin-4 protein (obtained from Charles River).
Human Nectin-4 (residues Gly32-Ser349; NCBI RefSeq: NP_112178.2) with a gp67 signal sequence and C-terminal FLAG tag was cloned into pFastbac-1 and baculovirus made using standard Bac-to-Bac™ protocols (Life Technologies). Sf21 cells at 1×10^6 ml^−1 in Excell-420 medium (Sigma) at 27° C. were infected at an MOI of 2 with a P1 virus stock and the supernatant harvested at 72 hours. […] The protein was eluted with 100 μg/ml FLAG peptide. The eluted protein was concentrated to 2 ml and loaded onto an S-200 Superdex column (GE Healthcare) in PBS at 1 ml/min. 2 ml fractions were collected and the fractions containing Nectin-4 protein were concentrated to 16 mg/ml.
The protein was extensively desalted to remove uncoupled biotin using spin columns into PBS.
For analysis of peptide binding, a Biacore 3000 instrument was used utilising a CM5 chip (GE Healthcare). Streptavidin was immobilized on the chip using standard amine-coupling chemistry at 25° C. with HBS-N (10 mM HEPES, 0.15 M NaCl, pH 7.4) as the running buffer. Briefly, the carboxymethyl dextran surface was activated with a 7 minute injection of a 1:1 ratio of 0.4 M 1-ethyl-3-(3-dimethylaminopropyl) carbodiimide hydrochloride (EDC)/0.1 M N-hydroxy succinimide (NHS) at a flow rate of 10 μl/min. For capture of streptavidin, the protein was diluted to 0.2 mg/ml in 10 mM sodium acetate (pH 4.5) and captured by injecting 120 μl of streptavidin onto the activated chip surface. Residual activated groups were blocked with a 7 minute injection of 1 M ethanolamine (pH 8.5) and biotinylated Nectin-4 captured to a level of 1,200-1,800 RU. Buffer was changed to PBS/0.05% Tween 20 and a dilution series of the peptides was prepared in this buffer with a final DMSO concentration of 0.5%. The top peptide concentration was 100 nM with 6 further 2-fold dilutions. The SPR analysis was run at 25° C. at a flow rate of 50 μl/min with 60 seconds association and dissociation between 400 and 1,200 seconds depending upon the individual peptide. Data were corrected for DMSO excluded volume effects. All data were double-referenced for blank injections and reference surface using standard processing procedures and data processing and kinetic fitting were performed using Scrubber software, version 2.0c (BioLogic Software). Data were fitted using simple 1:1 binding model allowing for mass transport effects where appropriate.

`CC[C@H](C)C(C(CC(=O)N1CCC[C@H]1[C@H](OC)[C@@H](C)C(=O)NC(C)[C@@H](O)c1ccccc1)OC)N(C)C(=O)[C@@H](NC(=O)C(C(C)C)N(C)C(=O)OCc1ccc(NC(=O)[C@H](CCCNC(N)=O)NC(=O)C(NC(=O)CCCC(=O)NCCC(=O)N(C)CC(=O)N(C)CC(=O)N(C)CC(=O)N(C)CC(=O)N(C)CC(=O)N(C)CC(=O)N(C)CC(=O)N(C)CC(=O)N(C)CC(=O)N(C)CC(=O)N[C@H]2CSCCC(=O)N3CN4CN(C3)C(=O)CCSC[C@H](NC(=O)[C@@H](CC(=O)O)NC(=O)[C@H](Cc3cccc5ccccc35)NC(=O)[C@@H]3CCCN3C2=O)C(=O)N[C@@H](CCSC)C(=O)N[C@@H](CCCCNC(=N)N)C(=O)N[C@@H](CC(=O)O)C(=O)N[C@@H](Cc2c[nH]c3ccccc23)C(=O)N[C@@H](CO)C(=O)N[C@@H]([C@@H](C)O)C(=O)N2CCC[C@H]2C(=O)N2C[C@H](O)C[C@H]2C(=O)N[C@@H](Cc2c[nH]c3ccccc23)C(=O)N[C@H](C(N)=O)CSCCC4=O)C(C)C)cc1)C(C)C` (stereo partly drawn) [BCY8245, MMAE-PABC-Cit-Val-Glutaryl-BCY8234] (I: [Sar][Sar][Sar][Sar][Sar][Sar][Sar][Sar][Sar][Sar]CP[1Nal][dD]CM[hArg]DWSTP[Hyp]WC-NH2 / II: [ξV][Cit][PABC][ξNMeV]V[X1][Dolaproine]-X2; linker I:11-I:15-I:25 via TATA; linker I:N-II:N via X3) gave a TGI (MDA-MB-468 xenograft; 1 mpk, qw, day 28) of 126.6%, a Tumor volume (MDA-MB-468 xenograft; 1 mpk, qw, day 28) of 384 mm^3 and a Tumor volume (MDA-MB-468 xenograft; 3 mpk, qw, day 0 after the start of treatment) of 464 mm^3. It also gave a Tumor volume (MDA-MB-468 xenograft; 3 mpk, qw, day 2) of 451 mm^3, a Tumor volume (MDA-MB-468 xenograft; 3 mpk, qw, day 5) of 388 mm^3 and a Tumor volume (MDA-MB-468 xenograft; 3 mpk, qw, day 7) of 333 mm^3. The Tumor volume (MDA-MB-468 xenograft; 3 mpk, qw, day 9) was 284 mm^3, the Tumor volume (MDA-MB-468 xenograft; 3 mpk, qw, day 12) was 168 mm^3 and the Tumor volume (MDA-MB-468 xenograft; 3 mpk, qw, day 14) was 129 mm^3. For the same molecule, the Tumor volume (MDA-MB-468 xenograft; 3 mpk, qw, day 16) was 93 mm^3, the Tumor volume (MDA-MB-468 xenograft; 3 mpk, qw, day 19) was 83 mm^3 and the Tumor volume (MDA-MB-468 xenograft; 3 mpk, qw, day 21) was 71 mm^3. It also gave a Tumor volume (MDA-MB-468 xenograft; 3 mpk, qw, day 23) of 60 mm^3, a Tumor volume (MDA-MB-468 xenograft; 3 mpk, qw, day 26) of 49 mm^3 and a T/C (MDA-MB-468 xenograft; 3 mpk, qw, day 28) of 6.4%. It also gave a TGI (MDA-MB-468 xenograft; 3 mpk, qw, day 28) of 234.6%, a Tumor volume (MDA-MB-468 xenograft; 3 mpk, qw, day 28) of 50 mm^3 and a Tumor volume (MDA-MB-468 xenograft; Group1, Vehicle, dosed with 5 mpk BCY8245 on PG-D28, day 30) of 625 ± 27 mm^3. It also gave a Tumor volume (MDA-MB-468 xenograft; Group1, Vehicle, dosed with 5 mpk BCY8245 on PG-D28, day 33) of 477 ± 31 mm^3, a Tumor volume (MDA-MB-468 xenograft; Group1, Vehicle, dosed with 5 mpk BCY8245 on PG-D28, day 35) of 405 ± 65 mm^3 and a Tumor volume (MDA-MB-468 xenograft; Group1, Vehicle, dosed with 5 mpk BCY8245 on PG-D28, day 37) of 237 ± 36 mm^3. It also gave a Tumor volume (MDA-MB-468 xenograft; Group1, Vehicle, dosed with 5 mpk BCY8245 on PG-D28, day 40) of 148 ± 33 mm^3, a Tumor volume (MDA-MB-468 xenograft; Group1, Vehicle, dosed with 5 mpk BCY8245 on PG-D28, day 42) of 142 ± 33 mm^3 and a Tumor volume (MDA-MB-468 xenograft; Group1, Vehicle, dosed with 5 mpk BCY8245 on PG-D28, day 44) of 132 ± 69 mm^3. It also gave a Tumor volume (MDA-MB-468 xenograft; Group1, Vehicle, dosed with 5 mpk BCY8245 on PG-D28, day 48) of 146 ± 100 mm^3, a Tumor volume (MDA-MB-468 xenograft; Group1, Vehicle, dosed with 5 mpk BCY8245 on PG-D28, day 51) of 171 ± 122 mm^3 and a Tumor volume (MDA-MB-468 xenograft; Group1, Vehicle, dosed with 5 mpk BCY8245 on PG-D28, day 55) of 227 ± 166 mm^3. It also gave a Tumor volume (MDA-MB-468 xenograft; Group1, Vehicle, dosed with 5 mpk BCY8245 on PG-D28, day 56) of 264 ± 182 mm^3, a Tumor volume (MDA-MB-468 xenograft; Group1, Vehicle, dosed with 5 mpk BCY8245 on PG-D28, day 62) of 288 ± 206 mm^3 and a Tumor volume (MDA-MB-468 xenograft; Group 2, 1 mpk, change in 5 mpk on PG-D28, day 30) of 351 ± 42 mm^3. For the same molecule, the Tumor volume (MDA-MB-468 xenograft; Group 2, 1 mpk, change in 5 mpk on PG-D28, day 33) was 213 ± 29 mm^3, the Tumor volume (MDA-MB-468 xenograft; Group 2, 1 mpk, change in 5 mpk on PG-D28, day 35) was 151 ± 18 mm^3 and the Tumor volume (MDA-MB-468 xenograft; Group 2, 1 mpk, change in 5 mpk on PG-D28, day 37) was 98 ± 16 mm^3. The Tumor volume (MDA-MB-468 xenograft; Group 2, 1 mpk, change in 5 mpk on PG-D28, day 40) was 89 ± 17 mm^3, the Tumor volume (MDA-MB-468 xenograft; Group 2, 1 mpk, change in 5 mpk on PG-D28, day 42) was 95 ± 16 mm^3 and the Tumor volume (MDA-MB-468 xenograft; Group 2, 1 mpk, change in 5 mpk on PG-D28, day 44) was 103 ± 20 mm^3. The Tumor volume (MDA-MB-468 xenograft; Group 2, 1 mpk, change in 5 mpk on PG-D28, day 48) was 106 ± 21 mm^3, the Tumor volume (MDA-MB-468 xenograft; Group 2, 1 mpk, change in 5 mpk on PG-D28, day 51) was 103 ± 21 mm^3 and the Tumor volume (MDA-MB-468 xenograft; Group 2, 1 mpk, change in 5 mpk on PG-D28, day 55) was 104 ± 20 mm^3. It also gave a Tumor volume (MDA-MB-468 xenograft; Group 2, 1 mpk, change in 5 mpk on PG-D28, day 56) of 120 ± 23 mm^3, a Tumor volume (MDA-MB-468 xenograft; Group3, 3 mpk, qw, day 30) of 44 ± 18 mm^3 and a Tumor volume (MDA-MB-468 xenograft; Group3, 3 mpk, qw, day 33) of 43 ± 20 mm^3. It also gave a Tumor volume (MDA-MB-468 xenograft; Group3, 3 mpk, qw, day 35) of 44 ± 20 mm^3, a Tumor volume (MDA-MB-468 xenograft; Group3, 3 mpk, qw, day 37) of 50 ± 24 mm^3 and a Tumor volume (MDA-MB-468 xenograft; Group3, 3 mpk, qw, day 40) of 55 ± 29 mm^3. It also gave a Tumor volume (MDA-MB-468 xenograft; Group3, 3 mpk, qw, day 42) of 66 ± 32 mm^3, a Tumor volume (MDA-MB-468 xenograft; Group3, 3 mpk, qw, day 44) of 71 ± 33 mm^3 and a Tumor volume (MDA-MB-468 xenograft; Group3, 3 mpk, qw, day 48) of 80 ± 36 mm^3. The Tumor volume (MDA-MB-468 xenograft; Group3, 3 mpk, qw, day 51) was 91 ± 43 mm^3, the Tumor volume (MDA-MB-468 xenograft; Group3, 3 mpk, qw, day 55) was 108 ± 53 mm^3 and the Tumor volume (MDA-MB-468 xenograft; Group3, 3 mpk, qw, day 56) was 125 ± 58 mm^3. The “tumor response (in words)” value (MDA-MB-468 xenograft; former vehicle group and group 2, 5 mg/kg on PG-D28, following 3 weeks) was “effective tumor regression”, the “retention of MMAE in tumour versus plasma (in words)” value [1] was “retained in the tumour longer than in plasma” and the “efficacy (in words)” value (CTG-0896) was “excellent efficacy evoking tumor regression”. The “efficacy (in words)” value (CTG-1106) was “excellent efficacy evoking tumor regression”, the “efficacy (in words)” value (CTG-1171) was “excellent efficacy evoking tumor regression” and the “efficacy (in words)” value (CTG-1771) was “excellent efficacy evoking tumor regression”. The “binding to human Nectin-4 in the SPR binding assay (in words)” value (human Nectin-4) was “excellent binding” and the Kd (human Nectin-4; read-out: Human SPR Kd, bicyclic drug conjugates (Table 4)) was 5.12 nM.
